The term IC50 denotes the midpoint of a concentration-inhibition curve.

Like-named read-outs stand apart in the source and are kept apart here.

The target in one test is T1, KDM4C (Homo sapiens, UniProt Q9H3R0).
T1 construct: Full length of KDM5B and KDM4C protein were purchased from Active Motif; purchased Active Motif 31858
T1 sequence (Q9H3R0 1-1056): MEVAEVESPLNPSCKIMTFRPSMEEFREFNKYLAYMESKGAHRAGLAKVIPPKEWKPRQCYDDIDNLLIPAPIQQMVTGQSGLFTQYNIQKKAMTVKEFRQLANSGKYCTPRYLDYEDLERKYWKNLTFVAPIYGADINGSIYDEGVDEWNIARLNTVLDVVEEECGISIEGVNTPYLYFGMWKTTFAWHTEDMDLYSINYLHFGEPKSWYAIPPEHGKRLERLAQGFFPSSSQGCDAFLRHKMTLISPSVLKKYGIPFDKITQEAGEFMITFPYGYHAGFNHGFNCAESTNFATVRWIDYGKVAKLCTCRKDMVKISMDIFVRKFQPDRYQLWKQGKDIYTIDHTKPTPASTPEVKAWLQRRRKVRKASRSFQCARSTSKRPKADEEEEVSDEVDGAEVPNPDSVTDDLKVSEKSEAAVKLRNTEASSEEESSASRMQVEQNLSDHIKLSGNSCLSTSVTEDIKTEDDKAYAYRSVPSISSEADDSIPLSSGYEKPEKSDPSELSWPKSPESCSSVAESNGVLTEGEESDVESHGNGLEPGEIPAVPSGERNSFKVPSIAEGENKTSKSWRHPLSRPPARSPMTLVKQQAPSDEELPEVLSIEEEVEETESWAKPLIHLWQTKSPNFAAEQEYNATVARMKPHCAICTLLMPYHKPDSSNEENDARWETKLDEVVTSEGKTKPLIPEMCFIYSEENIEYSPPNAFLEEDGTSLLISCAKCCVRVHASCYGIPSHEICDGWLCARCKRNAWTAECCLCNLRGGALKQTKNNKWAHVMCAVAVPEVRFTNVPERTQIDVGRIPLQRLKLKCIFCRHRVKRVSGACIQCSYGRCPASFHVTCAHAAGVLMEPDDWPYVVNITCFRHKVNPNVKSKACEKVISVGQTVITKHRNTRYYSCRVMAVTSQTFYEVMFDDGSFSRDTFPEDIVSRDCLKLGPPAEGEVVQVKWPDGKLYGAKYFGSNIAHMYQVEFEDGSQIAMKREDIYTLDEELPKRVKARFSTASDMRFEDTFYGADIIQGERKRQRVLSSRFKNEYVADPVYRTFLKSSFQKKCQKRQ
The test is described as follows: KDM4C AlphaScreen assay. The format is biochemical. To be noted: AlphaScreen; full length KDM4C 0.2 nM; biotinylated H3K9Me3 peptide 3 nM; 30 minutes at room temperature. An outline of the steps:
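Full-length KDM4C (0.2 nM final) was preincubated 15 min at RT with compound in HEPES pH 7.4 with Tween-20, BSA and TCEP. The reaction ran 30 min at RT after adding biotinylated peptide (3 nM final) in buffer with Fe(II), α-ketoglutarate and ascorbate. EDTA-containing AlphaScreen beads stopped it; IC50 was curve-fitted.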
Background: In Alpha technology, singlet oxygen from a donor bead excites a nearby acceptor bead.

A further test deals with T2, KDM5B (Homo sapiens, UniProt Q9UGL1).
T2 construct: Full length of KDM5B and KDM4C protein were purchased from Active Motif; purchased Active Motif 31832
Description: biochemical. An outline of the steps: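 KDM5B (0.5 nM final) was preincubated with compound for 15 min at room temperature, then reacted with biotinylated peptide (3 nM final) for 25 min at room temperature.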

[1] abbreviates: AlphaScreen, full length KDM5B 0.5 nM, biotinylated H3K4Me3 peptide 3 nM, 25 minutes at room temperature, read-out: KDM5B (IC50).

T2 sequence (Q9UGL1 whole entry): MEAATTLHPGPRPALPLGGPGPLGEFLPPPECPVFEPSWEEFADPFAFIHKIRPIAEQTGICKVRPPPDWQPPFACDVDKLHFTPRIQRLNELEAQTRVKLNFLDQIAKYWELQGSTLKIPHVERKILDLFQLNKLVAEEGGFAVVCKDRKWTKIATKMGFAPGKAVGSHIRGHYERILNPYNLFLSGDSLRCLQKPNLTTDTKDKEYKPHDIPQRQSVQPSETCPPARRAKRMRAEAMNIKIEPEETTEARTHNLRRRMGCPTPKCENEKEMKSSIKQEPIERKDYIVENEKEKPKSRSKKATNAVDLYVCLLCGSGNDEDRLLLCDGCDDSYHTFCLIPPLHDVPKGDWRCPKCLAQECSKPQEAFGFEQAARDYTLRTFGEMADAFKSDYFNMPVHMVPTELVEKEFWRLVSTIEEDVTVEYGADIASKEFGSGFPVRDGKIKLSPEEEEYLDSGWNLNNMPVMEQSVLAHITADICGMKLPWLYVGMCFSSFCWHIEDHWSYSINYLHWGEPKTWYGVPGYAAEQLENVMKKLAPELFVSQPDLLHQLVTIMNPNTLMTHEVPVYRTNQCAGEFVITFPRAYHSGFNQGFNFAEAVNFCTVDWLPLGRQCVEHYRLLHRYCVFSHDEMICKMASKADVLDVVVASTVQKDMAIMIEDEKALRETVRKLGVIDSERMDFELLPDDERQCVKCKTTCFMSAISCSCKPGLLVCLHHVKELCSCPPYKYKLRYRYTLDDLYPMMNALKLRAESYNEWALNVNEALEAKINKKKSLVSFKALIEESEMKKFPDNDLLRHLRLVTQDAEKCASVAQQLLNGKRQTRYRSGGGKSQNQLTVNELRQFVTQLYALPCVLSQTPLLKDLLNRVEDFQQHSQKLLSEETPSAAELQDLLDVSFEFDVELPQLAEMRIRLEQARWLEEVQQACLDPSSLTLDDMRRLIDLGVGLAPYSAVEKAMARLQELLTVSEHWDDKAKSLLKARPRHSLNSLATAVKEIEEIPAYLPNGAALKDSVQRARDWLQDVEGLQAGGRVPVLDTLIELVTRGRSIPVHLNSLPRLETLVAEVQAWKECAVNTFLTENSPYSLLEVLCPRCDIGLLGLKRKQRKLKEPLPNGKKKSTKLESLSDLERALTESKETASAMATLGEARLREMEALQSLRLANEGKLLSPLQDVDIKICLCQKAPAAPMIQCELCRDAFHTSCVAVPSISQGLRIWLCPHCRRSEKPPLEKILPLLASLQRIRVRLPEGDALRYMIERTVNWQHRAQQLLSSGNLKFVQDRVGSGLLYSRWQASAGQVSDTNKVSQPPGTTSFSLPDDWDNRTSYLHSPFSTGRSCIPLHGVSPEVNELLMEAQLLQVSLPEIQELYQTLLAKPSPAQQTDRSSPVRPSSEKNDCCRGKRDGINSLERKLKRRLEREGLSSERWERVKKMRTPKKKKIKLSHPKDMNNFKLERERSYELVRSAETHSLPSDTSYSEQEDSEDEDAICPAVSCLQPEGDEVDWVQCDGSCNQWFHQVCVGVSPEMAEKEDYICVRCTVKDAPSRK

On to `CC(C)c1c(O)nc(-n2ccnc2)nc1-c1cnn(CC(=O)N2CCOCC2)c1` [Example 117, 2-{4-[6-Hydroxy-2-(1H-imidazol-1-yl)-5-(propan-2-yl)pyrimidin-4-yl]-1H-pyrazol-1-yl}-1-(morpholin-4-yl)ethan-1-one], for which the IC50 was 1970 nM at KDM4C and 31 nM against KDM5B.

`CC(C)c1c(O)nc(-n2ccnc2)nc1-c1ccc(S(C)(=O)=O)cc1` [Example 69, 2-(1H-Imidazol-1-yl)-6-(4-methanesulfonylphenyl)-5-(propan-2-yl)pyrimidin-4-ol]: the half-maximal inhibitory concentration (IC50) against KDM4C amounted to 2060 nM; at KDM5B it was 22 nM.

As for `CNC(=O)Cn1cc(-c2nc(-n3ccnc3)nc(O)c2C(C)C)cn1` [Example 113, 2-{4-[6-Hydroxy-2-(1H-imidazol-1-yl)-5-(propan-2-yl)pyrimidin-4-yl]-1H-pyrazol-1-yl)-N-methyl-acetamide], the IC50 against KDM4C came out at 2090 nM; against KDM5B it was 24 nM.

With `CC(C)c1c(O)nc(-n2ccnc2)nc1OCCC1CCN(C(=O)CCO)CC1` [Example 14, 3-hydroxy-1-[4-(2-{[6-hydroxy-2-(1H-imidazol-1-yl)-5-(propan-2-yl)pyrimidin-4-yl]oxy}-ethyl)piperidin-1-yl]propan-1-one], the IC50 at KDM4C was determined as 2010 nM; against KDM5B, 32 nM.

On to `CC(C)c1c(O)nc(-n2ccnc2)nc1-c1cnn(C2CCC2)c1` [Example 49, 6-(1-Cyclobutyl-1H-pyrazol-4-yl)-2-(1H 1H-imidazol-1-yl)-5-(propan-2-yl)pyrimidin-4-ol], for which the IC50 amounted to 716 nM on KDM4C and 13 nM against KDM5B.

As for `CC(C)c1c(O)nc(-n2ccnc2)nc1-c1cnn(CC(=O)NCc2ccn(C)n2)c1` [Example 106, 2-{4-[6-Hydroxy-2-(1H-imidazol-1-yl)-5-(propan-2-yl)pyrimidin-4-yl]-1H-pyrazol-1-yl}-N-[(1-methyl-1H-pyrazol-3-yl)methyl]-acetamide], the IC50 on KDM4C was found to be 869 nM; against KDM5B, 18 nM.

On to `CC(C)Cc1ccc(-c2nc(-n3ccnc3)nc(O)c2C(C)C)cc1` [Example 86, 2-(1H-Imidazol-1-yl)-6-[4-(2-methylpropyl)phenyl]-5-(propan-2-yl)pyrimidin-4-ol], for which the IC50 against KDM4C is 10000 nM; at KDM5B (setting [1]) it was 1130 nM.

On to `CC(C)c1c(O)nc(-c2cncs2)nc1-c1cnn(Cc2ccccc2)c1` [Example 20, 6-(1-Benzyl-1H-pyrazol-4-yl)-5-(propan-2-yl)-2-(1,3-thiazol-5-yl)pyrimidin-4-ol], for which the IC50 turned out to be 11200 nM against KDM4C and 100 nM at KDM5B.

As for `CC(C)c1c(O)nc(-c2cncs2)nc1-c1cnn(C(C)C)c1` [Example 152, 5-(Propan-2-yl)-6-[1-(propan-2-yl)-1H-pyrazol-4-yl]-2-(1,3-thiazol-5-yl)pyrimidin-4-ol], the IC50 against KDM4C was found to be 7240 nM; at KDM5B, 151 nM.

In the case of `CC(C)c1c(O)nc(-n2ccnc2)nc1-c1cnn(CC(C)(C)O)c1` [Example 81, 6-[1-(2-Hydroxy-2-methyl-propyl)-1H-pyrazol-4-yl]-2-(1H-imidazol-1-yl)-5-(propan-2-yl)pyrimidin-4-ol], the figures for the IC50 against KDM4C and against KDM5B were 4040 nM and 60 nM, respectively.

`Cc1nc(-n2ccnc2N)nc(O)c1C(C)C` [Example 23, 2-(2-aminoimidazol-1-yl)-5-isopropyl-6-methyl-pyrimidin-4-ol]: the IC50 stood at 775 nM on KDM4C and 24 nM against KDM5B.

`CC(C)c1c(O)nc(-n2ccnc2)nc1-c1cnn(CC(=O)N2CCC(C#N)CC2)c1` [Example 110, 1-(2-{4-[6-Hydroxy-2-(1H-imidazol-1-yl)-5-(propan-2-yl)pyrimidin-4-yl]-1H-pyrazol-1-yl}acetyl)-piperidine-4-carbonitrile]: the IC50 turned out to be 1250 nM at KDM4C and 21 nM on KDM5B.

For the compound `CC(C)c1c(O)nc(-n2ccnc2)nc1-c1cnn(C)c1` [Example 55, 2-(1H-Imidazol-1-yl)-6-(1-methyl-1H-pyrazol-4-yl)-5-(propan-2-yl)pyrimidin-4-ol], the IC50 on KDM4C came to 1340 nM; against KDM5B it was 15 nM.

Turning to `CC(C)c1c(O)nc(-n2ccnc2)nc1-c1cccc(S(C)(=O)=O)c1` [Example 72, 2-(1H-Imidazol-1-yl)-6-(3-methanesulfonylphenyl)-5-(propan-2-yl)pyrimidin-4-ol], the half-maximal inhibitory concentration (IC50) is 4470 nM against KDM4C and 24 nM at KDM5B (setting [1]).

Take `CC(C)c1c(O)nc(-n2ccnc2)nc1-c1cnn(CCN2CCOCC2)c1` [Example 68, 2-(1H-Imidazol-1-yl)-6-{1-[2-(morpholin-4-yl)ethyl]-1H-pyrazol-4-yl}-5-(propan-2-yl)pyrimidin-4-ol]: the results for the IC50 at KDM4C and at KDM5B were 2450 nM and 21 nM, respectively.

`CC(C)c1c(O)nc(-n2ccnc2)nc1OCCN1CCCCC1` [Example 130, 2-(1H-Imidazol-1-yl)-6-[2-(piperidin-1-yl)ethoxy]-5-(propan-2-yl)pyrimidin-4-ol]: the IC50 at KDM4C is 3670 nM; on KDM5B, 27 nM.

Consider `CC(C)c1c(O)nc(-n2ccnc2)nc1OCCC1CCN(CCCC(F)(F)F)CC1` [Example 13, 2-(1H-imidazol-1-yl)-5-(propan-2-yl)-6-{2-[1-(4,4,4-trifluorobutyl)piperidin-4-yl]ethoxy}pyrimidin-4-ol], for which the IC50 on KDM4C worked out at 1140 nM; at KDM5B it was 12 nM.

On to `CC(C)c1c(O)nc(-n2ccnc2)nc1-c1cnn(CC(=O)N2CCCC(N)C2)c1` (stereo not shown) [Example 98, 1-(3-Aminopiperidin-1-yl)-2-{4-[6-hydroxy-2-(1H-imidazol-1-yl)-5-(propan-2-yl)pyrimidin-4-yl]-1H-pyrazol-1-yl}ethan-1-one], for which the IC50 came to 505 nM on KDM4C and 8 nM at KDM5B.

In the case of `CC(C)Cn1cc(-c2nc(-n3ccnc3)nc(O)c2C(C)C)cn1` [Example 65, 2-(1H-Imidazol-1-yl)-6-[1-(2-methylpropyl)-1H-pyrazol-4-yl]-5-(propan-2-yl)pyrimidin-4-ol], the IC50 on KDM4C was 937 nM; against KDM5B it was 19 nM.

`CC(C)c1c(O)nc(-n2ccnc2)nc1OCC(=O)O` [Example 15, 2-{[6-hydroxy-2-(1H-imidazol-1-yl)-5-(propan-2-yl)pyrimidin-4-yl]oxy}acetic acid]: the IC50 stood at 10300 nM on KDM4C and 651 nM against KDM5B.

In the case of `CC(C)c1c(O)nc(-n2ccnc2-c2ncccn2)nc1Cl` [Example 88, 6-Chloro-5-(propan-2-yl)-2-[2-(pyrimidin-2-yl)-1H-imidazol-1-yl]pyrimidin-4-ol], the values for the IC50 at KDM4C and at KDM5B (setting [1]) were 8260 nM and 563 nM, respectively.

Take `CC(C)c1c(O)nc(-n2ccnc2)nc1OCCN1CCOCC1` [Example 123, 2-(1H-Imidazol-1-yl)-6-[2-(morpholin-4-yl)ethoxy]-5-(propan-2-yl)pyrimidin-4-ol]: the IC50 was determined as 1590 nM at KDM4C and 9 nM at KDM5B.

Turning to `CCCCCCOc1nc(-n2ccnc2)nc(O)c1C(C)C` [Example 140, 6-(Hexyloxy)-2-(1H-imidazol-1-yl)-5-(propan-2-yl)pyrimidin-4-ol], the IC50 against KDM4C turned out to be 50000 nM; on KDM5B (setting [1]), 341 nM.

For the compound `Cc1ccc(-c2nc(-n3ccnc3)nc(O)c2C(C)C)cc1N` [Example 54, 6-(3-Amino-4-methylphenyl)-2-(1H-imidazol-1-yl)-5-(propan-2-yl)pyrimidin-4-ol], the IC50 on KDM4C is 896 nM; at KDM5B it was 15 nM.

As to `CC(C)c1c(O)nc(-n2ccnc2)nc1-c1ccc(C(=O)NCCN(C)C)nc1` [Example 8, N-(2-(dimethylamino)ethyl)-5-(6-hydroxy-2-(1H-imidazol-1-yl)-5-isopropylpyrimidin-4-yl)-picolinamide], the figures for the IC50 at KDM4C and against KDM5B were 752 nM and 8 nM, respectively.

For the compound `CC(C)c1c(O)nc(-n2ccnc2)nc1-c1cnn(CC(=O)NCC(N)=O)c1` [Example 114, N-(Carbamoylmethyl)-2-{4-[6-hydroxy-2-(1H-imidazol-1-yl)-5-(propan-2-yl)pyrimidin-4-yl]-1H-pyrazol-1-yl}-acetamide], the IC50 is 2030 nM against KDM4C and 26 nM against KDM5B.

Values taken from patent US20190135793A1, “HETEROCYCLIC INHIBITORS OF KDM5 FOR THE TREATMENT OF DISEASE” (Board of Regents, The University of Texas System, priority 2017, published 2019).
